Data published in patent US20240158385A1, “NOVEL COMPOUNDS” (Cerevance, Inc., priority 2021, published 2024).

target: T1, human KCNK13 (Homo sapiens, UniProt Q9HB14); assay: KCNK13 antagonist activity, thallium (Tl+) flux FLIPR assay; type: cell-based; conditions: not given
T1 construct: expressed in transfected cells
T1 sequence (Q9HB14 1-408): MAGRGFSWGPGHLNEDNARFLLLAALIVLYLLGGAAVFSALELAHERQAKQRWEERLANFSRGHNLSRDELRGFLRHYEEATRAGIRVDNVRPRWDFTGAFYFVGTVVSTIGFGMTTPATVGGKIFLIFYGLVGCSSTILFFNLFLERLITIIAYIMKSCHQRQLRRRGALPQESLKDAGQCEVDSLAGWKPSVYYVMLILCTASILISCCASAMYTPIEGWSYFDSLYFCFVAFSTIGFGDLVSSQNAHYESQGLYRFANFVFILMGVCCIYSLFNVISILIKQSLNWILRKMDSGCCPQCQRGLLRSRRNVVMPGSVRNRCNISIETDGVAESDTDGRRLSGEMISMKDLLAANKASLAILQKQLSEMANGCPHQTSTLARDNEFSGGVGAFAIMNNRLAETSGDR
Method: KCNK13 antagonist activity was determined by measuring changes in intracellular Thallium (Tl^+) concentrations using a Tl^+ sensitive fluorescent dye. The changes in fluorescent signal were monitored by Fluorescent Imaging Plate Reader (FLIPR™) technology available from Molecular Devices, LLC, US. KCNK13 mediated increases in intracellular Tl+concentration were readily detected by addition of a thallium sulfate stimulus. 24 hours prior to the assay, human embryonic kidney 293 cells (HEK 293 cells) stably expressing human KCNK13 were seeded in cell culture medium in PDL coated black, clear-bottom 384-well plates (commercially available from Corning Inc., 356663) and grown overnight at 37° C., 5% CO2. On the day of the assay, cell culture media was removed and cells were loaded with potassium dye (commercially sold by Molecular Devices, LLC, US, R8222) for 1 hour at room temperature in the dark. Test compounds (at 10 point half log concentration response curves from […]) were added to cells for 15 minutes prior to the addition of thallium sulfate to all wells. The IC50 values were determined from ten point concentration response curves. Curves were generated using the average of two wells for each data point.

Cc1nonc1-c1nc2cccnc2n1Cc1ccc(Cl)nc1 [Example 24, 3-[3-[(6-chloropyridin-3-yl)methyl]imidazo[4,5-b]pyridin-2-yl]-4-methyl-1,2,5-oxadiazole] and Nc1nonc1-c1nc2cc(F)cnc2n1Cc1ccc(Cl)nc1 [Example 29, 4-[3-[(6-chloropyridin-3-yl)methyl]-6-fluoro-imidazo[4,5-b]pyridin-2-yl]-1,2,5-oxadiazol-3-amine] cannot be ordered by IC50: < 100 nM for the first, < 50 nM for the second.

Nc1nonc1-c1nc2cccnc2n1Cc1cncnc1 [Example 15, 4-[3-(pyrimidin-5-ylmethyl)imidazo[4,5-b]pyridin-2-yl]-1,2,5-oxadiazol-3-amine] and Nc1nonc1-c1nc2ncc(F)cc2n1Cc1ccc(Cl)nc1 [Example 159, 4-(1-((6-chloropyridin-3-yl)methyl)-6-fluoro-1H-imidazo[4,5-b]pyridin-2-yl)-1,2,5-oxadiazol-3-amine] cannot be ordered by IC50: < 200 nM for the first, < 50 nM for the second.

same assay, conditions: HEK 293 cells stably expressing human KCNK13; Tl+ sensitive dye, FLIPR; compounds 15 minutes prior to thallium sulfate; 10 point half log curves from 10 PM; read-out: hKCNK13 IC50

Nc1nonc1-c1nc2ccc(F)c(F)c2n1Cc1cccnn1 (single isomer, unassigned) [Example 162, 4-(6,7-difluoro-1-(pyridazin-3-ylmethyl)-benzimidazol-2-yl)-1,2,5-oxadiazol-3-amine] and Nc1nonc1-c1nc2c(F)c(F)ccc2n1Cc1cccnn1 (single isomer, unassigned) [Example 163, 4-(4,5-difluoro-1-(pyridazin-3-ylmethyl)-benzimidazol-2-yl)-1,2,5-oxadiazol-3-amine] cannot be ordered by IC50: < 50 nM for the first, < 200 nM for the second.

Cc1nsnc1-c1nc2c(F)cccc2n1Cc1cccnn1 [Example 140, 3-(4-fluoro-1-(pyridazin-3-ylmethyl)-benzimidazol-2-yl)-4-methyl-1,2,5-thiadiazole] and Cc1snnc1-c1nc2c(F)cccc2n1Cc1cccnc1 (single isomer, unassigned) [Example 129, 4-[4-fluoro-1-(pyridin-3-ylmethyl)benzimidazol-2-yl]-5-methyl-1,2,3-thiadiazole] cannot be ordered by IC50: < 500 nM for the first, < 100 nM for the second.

Nc1nonc1-c1nc2c(F)cccc2n1Cc1ccc(C(F)F)nn1 (single isomer, unassigned) [Example 173, 4-(1-((6-(difluoromethyl)pyridazin-3-yl)methyl)-4-fluoro-benzimidazol-2-yl)-1,2,5-oxadiazol-3-amine] and Cc1nonc1-c1nc2c(F)cccc2n1Cc1ccc(C#N)nn1 [Example 47, 6-[[4-fluoro-2-(4-methyl-1,2,5-oxadiazol-3-yl)benzimidazol-1-yl]methyl]pyridazine-3-carbonitrile] cannot be ordered by IC50: < 500 nM for the first, < 200 nM for the second.

Nc1nonc1-c1nc2cc(F)cc(F)c2n1Cc1ccncc1 [Example 136, 4-(5,7-difluoro-1-(pyridin-4-ylmethyl)-benzimidazol-2-yl)-1,2,5-oxadiazol-3-amine] and Cc1nonc1-c1nc2cc(F)cc(F)c2n1Cc1cccnc1 [Example 27, 3-[5,7-difluoro-1-(pyridin-3-ylmethyl)benzimidazol-2-yl]-4-methyl-1,2,5-oxadiazole] cannot be ordered by IC50: < 100 nM for the first, < 50 nM for the second.

Fc1cccc2nc(-c3cnns3)n(Cc3cccnc3)c12 [Example 68, 5-[7-fluoro-1-(pyridin-3-ylmethyl)benzimidazol-2-yl]-1,2,3-thiadiazole] and Cc1nonc1-c1nc2cccc(N)c2n1Cc1cccnc1 [Example 72, 2-(4-methyl-1,2,5-oxadiazol-3-yl)-3-(pyridin-3-ylmethyl)benzimidazol-4-amine] cannot be ordered by IC50: < 200 nM for the first, < 500 nM for the second.

COc1ccc(Cn2c(-c3nonc3N)nc3cccnc32)cn1 [Example 14, 4-[3-[(6-methoxypyridin-3-yl)methyl]imidazo[4,5-b]pyridin-2-yl]-1,2,5-oxadiazol-3-amine] and Nc1nonc1-c1nc2cccc(F)c2n1Cc1ccc(OC(F)(F)F)nc1 [Example 176, 4-(7-fluoro-1-((6-(trifluoromethoxy)pyridin-3-yl)methyl)-benzimidazol-2-yl)-1,2,5-oxadiazol-3-amine] cannot be ordered by IC50: < 200 nM for the first, < 5000 nM for the second.

CNc1cccc2nc(-c3nonc3C)n(Cc3cccnc3)c12 [Example 81, N-methyl-2-(4-methyl-1,2,5-oxadiazol-3-yl)-3-(pyridin-3-ylmethyl)benzimidazol-4-amine] and CN(C)c1ccc2c(c1)nc(-c1nonc1N)n2Cc1cccnc1 [Example 34, 4-[5-(dimethylamino)-1-(pyridin-3-ylmethyl)benzimidazol-2-yl]-1,2,5-oxadiazol-3-amine] cannot be ordered by IC50: < 1000 nM for the first, < 1000 nM for the second.

Nc1nonc1-c1nc2c(F)cc(F)cc2n1Cc1cccnn1 [Example 142, 4-(4,6-difluoro-1-(pyridazin-3-ylmethyl)-benzimidazol-2-yl)-1,2,5-oxadiazol-3-amine] and Cc1nonc1-c1nc2c(F)cc(F)cc2n1Cc1cccnn1 (single isomer, unassigned) [Example 147, 3-(4,6-difluoro-1-(pyridazin-3-ylmethyl)-benzimidazol-2-yl)-4-methyl-1,2,5-oxadiazole] cannot be ordered by IC50: < 200 nM for the first, < 200 nM for the second.

Cc1nonc1-c1nc2ccc(F)cc2n1Cc1ccc(C#N)nc1 [Example 55, 5-[[6-fluoro-2-(4-methyl-1,2,5-oxadiazol-3-yl)benzimidazol-1-yl]methyl]pyridine-2-carbonitrile] and Cc1nonc1-c1nc2c(Cl)cccc2n1Cc1ccc(C#N)nc1 (single isomer, unassigned) [Example 61, 5-[[4-chloro-2-(4-methyl-1,2,5-oxadiazol-3-yl)benzimidazol-1-yl]methyl]pyridine-2-carbonitrile] cannot be ordered by IC50: < 100 nM for the first, < 200 nM for the second.

Nc1nonc1-c1nc2ncc(F)cc2n1Cc1cncnc1 [Example 160, 4-(6-fluoro-1-(pyrimidin-5-ylmethyl)-1H-imidazo[4,5-b]pyridin-2-yl)-1,2,5-oxadiazol-3-amine] and Nc1nonc1-c1nc2cc(F)ccc2n1Cc1cncnc1 (single isomer, unassigned) [Example 5, 4-[5-fluoro-1-(pyrimidin-5-ylmethyl)benzimidazol-2-yl]-1,2,5-oxadiazol-3-amine] cannot be ordered by IC50: < 500 nM for the first, < 100 nM for the second.

Cc1cccnc1Cn1c(-c2nonc2C)nc2ccccc21 [Example 69, 3-methyl-4-[1-[(3-methylpyridin-2-yl)methyl]benzimidazol-2-yl]-1,2,5-oxadiazole] and Cc1nonc1-c1nc2ccccc2n1Cc1cccnc1C#N [Example 67, 3-[[2-(4-methyl-1,2,5-oxadiazol-3-yl)benzimidazol-1-yl]methyl]pyridine-2-carbonitrile] cannot be ordered by IC50: < 200 nM for the first, < 200 nM for the second.

Nc1nocc1-c1nc2cccc(F)c2n1Cc1cccnn1 [Example 158, 4-(7-fluoro-1-(pyridazin-3-ylmethyl)-benzimidazol-2-yl)isoxazol-3-amine] and Nc1nonc1-c1nc2cccc(F)c2n1Cc1ccc(O)nn1 [Example 150, 6-((2-(4-amino-1,2,5-oxadiazol-3-yl)-7-fluoro-benzimidazol-1-yl)methyl)pyridazin-3-ol] cannot be ordered by IC50: < 5000 nM for the first, < 200 nM for the second.

N#Cc1ncc(Cn2c(-c3nonc3N)nc3ccc(F)c(F)c32)cn1 [Example 2, 5-[[2-(4-amino-1,2,5-oxadiazol-3-yl)-6,7-difluoro-benzimidazol-1-yl]methyl]pyrimidine-2-carbonitrile] and Nc1nonc1-c1nc2cccc(F)c2n1Cc1ccc(C(F)(F)F)nn1 (single isomer, unassigned) [Example 166, 4-(7-fluoro-1-((6-(trifluoromethyl)pyridazin-3-yl)methyl)-benzimidazol-2-yl)-1,2,5-oxadiazol-3-amine] cannot be ordered by IC50: < 50 nM for the first, < 100 nM for the second.
